{
  "source": "patent US6703399B2",
  "about": "“Halo-alkyl esters of camptothecins and methods of treating cancer using these compounds” (priority 2002, dated 2004)",
  "key": {"[1]": {"experiment": "Plasma CPT after intrastomach administration in mice, closed lactone share of AUC", "format": "in vivo"}, "[2]": {"experiment": "Pharmacokinetics of CPT in human plasma, lactone half-life", "format": "in vitro ADME"}, "[3]": {"experiment": "Plasma CPT after oral administration in humans, closed lactone share of AUC", "format": "in vivo"}, "[4]": {"experiment": "Plasma levels of 9NC after i.s. administration, share in closed lactone form", "format": "in vivo", "settings": "species not given, mice from b8 and b10"}, "tumors": {"system": "tumors", "experiment": "Clinical responses in Phase I patients", "format": "in vivo", "settings": "in humans", "from_the_text": "(§1) Clearly, there is a pressing need for a modification which will slow and delay the lactone ring opening upon its entrance into the blood circulation."}, "[5]": {"experiment": "Plasma levels of 9NC after oral administration to Phase I clinical trial patients, share in closed lactone form", "format": "in vivo, humans", "settings": "on average"}, "human tumor xenografts [6]": {"system": "human tumor xenografts", "experiment": "Antitumor activity against human tumor xenografts in mice", "format": "in vivo", "from_the_text": "as §1"}, "human tumor xenografts [7]": {"system": "human tumor xenografts", "settings": "in mice; cited from earlier work"}, "[8]": {"settings": "water-soluble sodium carboxylate salt; cited from earlier work"}},
  "data": [
    {"compound": "20(S)-camptothecin [CPT]", "values": [
      {"measurement": "closed lactone form, share of the area under the curve", "setting": "[1]", "result": "approximately 54%"},
      {"measurement": "half-life time of the drug with lactone intact", "setting": "[2]", "result": 30, "unit": "min"},
      {"measurement": "closed lactone ring form, share of the area under the curve", "setting": "[3]", "result": "about 0.4%"}
    ]},
    {"compound": "CC[C@@]1(O)C(=O)OCc2c1cc1n(c2=O)Cc2cc3c([N+](=O)[O-])cccc3nc2-1", "note": "[Example 9NC, 9-nitrocamptothecin]", "values": [
      {"measurement": "share of drug present in the plasma in the closed lactone form", "setting": "[4]", "result": 57, "unit": "%"},
      {"measurement": "complete tumor regressions", "setting": "tumors", "result": "2/32"},
      {"measurement": "share of drug present in plasma in the closed lactone form", "setting": "[5]", "result": "~3", "unit": "%"},
      {"measurement": "complete tumor regressions", "setting": "human tumor xenografts [6]", "result": "32/32"},
      {"measurement": "potency relative to CPT against human tumor xenografts", "setting": "human tumor xenografts [7]", "result": "2-3 times"}
    ]},
    {"compound": "CC[C@@](O)(C(=O)[O-])c1cc2n(c(=O)c1CO)Cc1cc3ccccc3nc1-2.[Na+]", "note": "[sodium carboxylate salt]", "values": [
      {"measurement": "anticancer activity in clinical evaluation", "setting": "[8]", "result": "devoid of anticancer activity"},
      {"measurement": "toxicity in clinical evaluation", "setting": "[8]", "result": "severe toxicity"}
    ]}
  ]
}
